Assay results reported in patent US20170367390A1, “USE OF ELLAGIC ACID DIHYDRATE IN FOOD PRODUCTS AND NUTRACEUTICALS” (HALO LIFE SCIENCE, LLC, priority 2014, published 2017).
“Also recorded” adds a separate entry of the source.

Assays:
glucose oxidase = glucose oxidase (Aspergillus niger, UniProt P13006); test: Direct interaction with glucose, glucose oxidase based glucometer on serum; assay type: biochemical; conditions: incubated with serum at room temperature five minutes or overnight at 37° C.
glucose oxidase, sequence (P13006 17-605, species assumed): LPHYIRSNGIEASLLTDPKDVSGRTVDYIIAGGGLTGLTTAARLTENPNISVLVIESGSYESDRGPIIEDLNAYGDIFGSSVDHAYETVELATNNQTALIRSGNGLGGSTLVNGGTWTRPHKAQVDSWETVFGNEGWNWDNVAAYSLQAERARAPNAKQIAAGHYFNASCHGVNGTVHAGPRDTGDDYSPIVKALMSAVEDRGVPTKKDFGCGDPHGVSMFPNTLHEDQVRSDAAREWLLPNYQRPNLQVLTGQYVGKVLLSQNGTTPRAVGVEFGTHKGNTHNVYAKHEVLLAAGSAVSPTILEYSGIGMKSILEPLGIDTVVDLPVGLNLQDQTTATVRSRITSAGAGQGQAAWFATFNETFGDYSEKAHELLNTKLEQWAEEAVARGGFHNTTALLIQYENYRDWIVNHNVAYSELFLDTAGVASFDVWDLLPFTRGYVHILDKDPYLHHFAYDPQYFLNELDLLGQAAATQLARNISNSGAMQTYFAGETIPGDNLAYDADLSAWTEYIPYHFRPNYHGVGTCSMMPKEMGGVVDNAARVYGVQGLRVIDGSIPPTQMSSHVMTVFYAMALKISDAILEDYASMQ
Description: Ellagic acid dihydrate was analyzed for direct interaction with glucose. A glucose oxidase based glucometer was used to measure serum glucose. Ellagic acid dihydrate was incubated with serum at room temperature for five minutes or overnight at 37° C. […] Ellagic acid dihydrate is not believed to directly interact with glucose.

MEF cells = test: Glucose uptake, 2-NBDG labeling, flow cytometry, MEFs; assay type: cell-based, mouse
Description: Cellular assays were performed using mouse myoblast C2C12 cells and MEF cells. […] Increased glucose uptake was indicated as increasing signal of 2-NBDG ([…]) in cells. Glucose uptake assays were carried out in a final incubation volume of 50 μl consisting of, 2-NBDG), (100 μM) in 1× Phosphate Buffered Saline w/Ca+, Mg+ (PBS++). The same buffer was used for washing cells. Insulin was used as a positive control. All testing compounds were prepared in 10% DMSO and diluted 1:100 for a final concentration of 0.1% DMSO (vehicle). Cells were culture to 70-90% confluence and then washed twice with PBS++. Cells were incubated for 30 minutes at 37° C. in PBS++. Nuclear stain, HCS CellMask stain (blue, Invitrogen), and/or testing compounds (ellagic acid dihydrate, insulin, or vehicle) were added. Cells were incubated for 30 min at 37° C. Cells were washed twice with PBS++ and incubated with 2-NBDG for 10 minutes. Cells were washed thrice with PBS++ and then imaged in PBS++. Alternatively, the final PBS wash was removed and cells were incubated with Accutase (Invitrogen) for 10 min at 37° C., neutralized with 10% FBS in 1×PBS, and analyzed by flow cytometry. An additional experiment was performed to measure glucose uptake in C2Cl2 cells exposed to metformin, insulin and ellagic acid dihydrate 2 (batch 2). FIG. 5C. Glucose uptake in ellagic acid dihydrate treated cell culture was measured and compared to glucose uptake under insulin or ellagic acid treatment. […] Flow cytometry results were run in triplicate with 1000 cells per batch.

[1] = tested on: mouse myoblast C2C12 cells; test: Glucose uptake, 2-NBDG labeling, flow cytometry, C2C12; assay type: cell-based
Description: Cellular assays were performed using mouse myoblast C2C12 cells and MEF cells. […] Increased glucose uptake was indicated as increasing signal of 2-NBDG ([…]) in cells. Glucose uptake assays were carried out in a final incubation volume of 50 μl consisting of, 2-NBDG), (100 μM) in 1× Phosphate Buffered Saline w/Ca+, Mg+ (PBS++). The same buffer was used for washing cells. Insulin was used as a positive control. All testing compounds were prepared in 10% DMSO and diluted 1:100 for a final concentration of 0.1% DMSO (vehicle). Cells were culture to 70-90% confluence and then washed twice with PBS++. Cells were incubated for 30 minutes at 37° C. in PBS++. Nuclear stain, HCS CellMask stain (blue, Invitrogen), and/or testing compounds (ellagic acid dihydrate, insulin, or vehicle) were added. Cells were incubated for 30 min at 37° C. Cells were washed twice with PBS++ and incubated with 2-NBDG for 10 minutes. Cells were washed thrice with PBS++ and then imaged in PBS++. Alternatively, the final PBS wash was removed and cells were incubated with Accutase (Invitrogen) for 10 min at 37° C., neutralized with 10% FBS in 1×PBS, and analyzed by flow cytometry. An additional experiment was performed to measure glucose uptake in C2Cl2 cells exposed to metformin, insulin and ellagic acid dihydrate 2 (batch 2). FIG. 5C.

GLUT4-GFP = test: Localization of glucose transporter GLUT4-GFP, time-lapse confocal microscopy in C2C12; assay type: cell-based, mouse
Description: Induction of glucose transporter, GLUT-4, in ellagic acid dihydrate treated cell cultures was studied. Cellular assays were performed using mouse myoblast C2C12 cells. The cells were infected with a fusion glucose transporter 4 green fluorescent protein (GLUT4-GFP). This protein allows the visualization of GLUT4 by imaging the GFP under fluorescent time-lapse microscopy. Frames were compiled to produce time-lapse images of cellular changes with no treatment or treatment with insulin. The localization of glucose transporter (GLUT4-GFP) was performed in final incubation volume of 505 μL, consisting of 500 μl of Hank's Buffer (Invitrogen) and 5 μl of tested compounds. Insulin was used as positive controls and vehicle (0.1% DMSO) as the negative control. All test compounds were prepared in 10% DMSO and diluted 1:100 for a final concentration of 0.1% DMSO (vehicle). The cells were rinsed in Hank's Buffer thrice and then incubated in Hank's Buffer at 37° C. for one hour. The test compounds were added (ellagic acid dihydrate, insulin, or vehicle) and the cells were imaged using laser-confocal microscopy (Leica TCS SP5 X) with FITC fluorescent filters to determine changes in GLUT4-GFP localization. Time-lapse images (TIF) were collected and post-processed using Image-J (NIH) for video construction.

O.O.O=c1oc2c(O)c(O)cc3c(=O)oc4c(O)c(O)cc1c4c23 [ellagic acid dihydrate]
inhibition of the glucose oxidase reaction (glucose oxidase): no inhibition of the glucose oxidase reaction was observed | increased glucose uptake (percent change relative to vehicle) (MEF cells; 400 nM exposure, fibroblasts (MEFs), flow cytometry): 47% | dose effect for increasing glucose uptake (MEF cells; MEFs, flow cytometry, 2-NBDG): dose effect for increasing glucose uptake | increase in glucose uptake compared with ellagic acid or insulin (MEF cells; MEFs, flow cytometry, Example 5): significantly greater increase in glucose uptake than that seen in ellagic acid (EA) or insulin treatment | glucose uptake (2-NBDG signal) relative to vehicle (MEF cells; MEFs, flow cytometry, vehicle 0.1% DMSO): significantly greater than vehicle treated | glucose uptake relative to insulin (MEF cells; fibroblasts (MEFs), at most concentrations tested / equal concentrations, dihydrate): significantly more glucose uptake relative to insulin; also recorded: exceeded the uptake induced by insulin | increase in glucose uptake compared with metformin ([1]; C2C12, at 4000 nm, FIG. 5C (ellagic acid dihydrate batch 2)): greater increase in glucose uptake than metformin | dose effect for increasing glucose uptake ([1]; C2C12, flow cytometry, 2-NBDG): dose effect for increasing glucose uptake | glucose uptake (2-NBDG signal) relative to vehicle ([1]; C2C12, flow cytometry, vehicle 0.1% DMSO): significantly greater than vehicle treated | increase in glucose uptake in myoblasts relative to fibroblasts ([1]; C2C12 myoblasts versus MEF fibroblasts): ~4 × | glucose uptake relative to insulin ([1]; myoblasts (C2C12), at most concentrations tested / equal concentrations, dihydrate): significantly more glucose uptake relative to insulin; also recorded: exceeded the uptake induced by insulin | timing of GLUT4-GFP/membrane process compared with insulin (GLUT4-GFP; C2C12, 4000 nM): slightly delayed | GLUT4-GFP localization (GLUT4-GFP; C2C12, 4000 nM exposure): decrease in nuclear GLUT4-GFP | ruffling of filopodia at the surface of the cell (GLUT4-GFP; C2C12, 4000 nM exposure): rapid ruffling of filopodia at the surface of the cell
